In PubChem BioAssay AID1963982 (Molecular Pharmacology Branch, DTP, NCI, 2024):

Test system: 313798-341-R-J2-PDC spheroids, viability
Assay: Anticancer human tumor 313798-341-R-J2-PDC patient-derived cervical squamous cell carcinoma cell line growth inhibition [PI3K]
Conditions: spheroids with HUVEC and MSC; for IC50: curve of first compound; for viability, T/C: stronger effect = lower value
Summary of the method: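 Targeted small molecules plus PI3K inhibitors, half-log dose series from Cmax (default top 10 microM), were applied to heterotypic spheroids of cancer cells with HUVEC and MSCs. Viability indicated growth inhibition.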

[1] = second compound 0.0316 µM, first compound 0.0316 µM
[2] = second compound 0.0316 µM, first compound 0.1 µM
[3] = second compound 0.0316 µM, first compound 0.316 µM
[4] = second compound 0.0316 µM, first compound 1 µM
[5] = second compound 0.0316 µM, first compound 3.16 µM
[6] = second compound 0.0316 µM, first compound 10 µM
[7] = second compound 0.1 µM, first compound 0.0316 µM
[8] = second compound 0.1 µM, first compound 0.1 µM
[9] = second compound 0.1 µM, first compound 0.316 µM
[10] = second compound 0.1 µM, first compound 1 µM
[11] = second compound 0.1 µM, first compound 3.16 µM
[12] = second compound 0.1 µM, first compound 10 µM
[13] = second compound 0.316 µM, first compound 0.0316 µM
[14] = second compound 0.316 µM, first compound 0.1 µM
[15] = second compound 0.316 µM, first compound 0.316 µM
[16] = second compound 0.316 µM, first compound 1 µM
[17] = second compound 0.316 µM, first compound 3.16 µM
[18] = second compound 0.316 µM, first compound 10 µM
[19] = second compound 1 µM, first compound 0.0316 µM
[20] = second compound 1 µM, first compound 0.1 µM
[21] = second compound 1 µM, first compound 0.316 µM
[22] = second compound 1 µM, first compound 1 µM
[23] = second compound 1 µM, first compound 3.16 µM
[24] = second compound 1 µM, first compound 10 µM
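Also: spheroids exposed to compounds for seven days.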
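For viability, T/C in this document: 100% = DMSO vehicle control viability.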

**Q.** For `CC(Cn1ccc(-c2ccc(C#N)c(Cl)c2)n1)NC(=O)c1cc(C(C)O)[nH]n1` (centres undefined) + Cc1nc(NC(=O)N2CCCC2C(N)=O)sc1-c1ccnc(C(C)(C)C(F)(F)F)c1, which IC50 (second compound 0.0316 µM) is on record?
**A.** The IC50 was > 10 µM.

**Q.** And the IC50 (second compound 0.1 µM)?
**A.** Its IC50 is > 10 µM.

**Q.** What about the IC50 (second compound 0.316 µM) of the same compound?
**A.** The IC50 was > 10 µM.

**Q.** What about the IC50 (second compound 1 µM) of the same compound?
**A.** The IC50 was > 10 µM.

**Q.** What about the IC50 (second compound 3.16 µM) of the same compound?
**A.** The IC50 was > 10 µM.

**Q.** What about the IC50 (second compound 10 µM) of the same compound?
**A.** Its IC50 is < 0.0316 µM.

**Q.** What about the viability, T/C [1] of the same compound?
**A.** Its viability, T/C is 103%.

**Q.** And the viability, T/C [2]?
**A.** Its viability, T/C is 93.9%.

**Q.** What about the viability, T/C [3] of the same compound?
**A.** Its viability, T/C is 97.6%.

**Q.** And the viability, T/C [4]?
**A.** Its viability, T/C is 99.9%.

**Q.** What about the viability, T/C [5] of the same compound?
**A.** The viability, T/C was 111%.

**Q.** And the viability, T/C [6]?
**A.** The viability, T/C was 92.1%.

**Q.** What about the viability, T/C [7] of the same compound?
**A.** The viability, T/C was 114%.

**Q.** What about the viability, T/C [8] of the same compound?
**A.** Its viability, T/C is 109%.

**Q.** What about the viability, T/C [9] of the same compound?
**A.** Its viability, T/C is 103%.

**Q.** And the viability, T/C [10]?
**A.** Its viability, T/C is 113%.

**Q.** What about the viability, T/C [11] of the same compound?
**A.** Its viability, T/C is 114%.

**Q.** And the viability, T/C [12]?
**A.** Its viability, T/C is 103%.

**Q.** What about the viability, T/C [13] of the same compound?
**A.** Its viability, T/C is 114%.

**Q.** And the viability, T/C [14]?
**A.** Its viability, T/C is 104%.

**Q.** What about the viability, T/C [15] of the same compound?
**A.** The viability, T/C was 118%.

**Q.** What about the viability, T/C [16] of the same compound?
**A.** Its viability, T/C is 114%.

**Q.** And the viability, T/C [17]?
**A.** Its viability, T/C is 108%.

**Q.** What about the viability, T/C [18] of the same compound?
**A.** The viability, T/C was 98.4%.

**Q.** And the viability, T/C [19]?
**A.** Its viability, T/C is 96.7%.

**Q.** And the viability, T/C [20]?
**A.** The viability, T/C was 93.6%.

**Q.** What about the viability, T/C [21] of the same compound?
**A.** Its viability, T/C is 94.8%.

**Q.** And the viability, T/C [22]?
**A.** Its viability, T/C is 85.2%.

**Q.** And the viability, T/C [23]?
**A.** Its viability, T/C is 97.6%.

**Q.** And the viability, T/C [24]?
**A.** The viability, T/C was 84.1%.

**Q.** And the viability, T/C (second compound 3.16 µM, first compound 0.0316 µM)?
**A.** Its viability, T/C is 67.5%.

**Q.** And the viability, T/C (second compound 3.16 µM, first compound 0.1 µM)?
**A.** The viability, T/C was 57.3%.

**Q.** And the viability, T/C (second compound 3.16 µM, first compound 0.316 µM)?
**A.** Its viability, T/C is 66.1%.

**Q.** What about the viability, T/C (second compound 3.16 µM, first compound 1 µM) of the same compound?
**A.** The viability, T/C was 61.7%.

**Q.** And the viability, T/C (second compound 3.16 µM, first compound 3.16 µM)?
**A.** The viability, T/C was 59.1%.

**Q.** What about the viability, T/C (second compound 3.16 µM, first compound 10 µM) of the same compound?
**A.** Its viability, T/C is 52.5%.

**Q.** And the viability, T/C (second compound 10 µM, first compound 0.0316 µM)?
**A.** The viability, T/C was 37.2%.

**Q.** And the viability, T/C (second compound 10 µM, first compound 0.1 µM)?
**A.** Its viability, T/C is 33.2%.

**Q.** And the viability, T/C (second compound 10 µM, first compound 0.316 µM)?
**A.** The viability, T/C was 39.3%.

**Q.** What about the viability, T/C (second compound 10 µM, first compound 1 µM) of the same compound?
**A.** Its viability, T/C is 36.3%.

**Q.** What about the viability, T/C (second compound 10 µM, first compound 3.16 µM) of the same compound?
**A.** The viability, T/C was 37.4%.

**Q.** And the viability, T/C (second compound 10 µM, first compound 10 µM)?
**A.** The viability, T/C was 30.9%.

**Q.** Which results are given for `CCCS(=O)(=O)Nc1ccc(F)c(C(=O)c2c[nH]c3ncc(-c4ccc(Cl)cc4)cc23)c1F` + CC(Nc1ccc2c(c1)OCCn1cc(N3C(=O)OCC3C(F)F)nc1-2)C(N)=O?
**A.** IC50 (second compound 0.00316 µM): 6 µM; IC50 (second compound 0.01 µM): 6 µM; IC50 (second compound 0.0316 µM): 5.77 µM; IC50 (second compound 0.1 µM): 4.97 µM; IC50 (second compound 0.316 µM): 3.56 µM; IC50 (second compound 1 µM): 1.67 µM; viability, T/C (second compound 0.00316 µM, first compound 0.0316 µM): 90.6%; viability, T/C (second compound 0.00316 µM, first compound 0.1 µM): 98.7%; viability, T/C (second compound 0.00316 µM, first compound 0.316 µM): 88.4%; viability, T/C (second compound 0.00316 µM, first compound 1 µM): 114%; viability, T/C (second compound 0.00316 µM, first compound 3.16 µM): 97.9%; viability, T/C (second compound 0.00316 µM, first compound 10 µM): 11.9%; viability, T/C (second compound 0.01 µM, first compound 0.0316 µM): 99.1%; viability, T/C (second compound 0.01 µM, first compound 0.1 µM): 95.8%; viability, T/C (second compound 0.01 µM, first compound 0.316 µM): 98.7%; viability, T/C (second compound 0.01 µM, first compound 1 µM): 106%; viability, T/C (second compound 0.01 µM, first compound 3.16 µM): 104%; viability, T/C (second compound 0.01 µM, first compound 10 µM): 9.37%; viability, T/C [1]: 107%; viability, T/C [2]: 97.8%; viability, T/C [3]: 97.7%; viability, T/C [4]: 97.7%; viability, T/C [5]: 92.7%; viability, T/C [6]: 10.9%; viability, T/C [7]: 104%; viability, T/C [8]: 92.6%; viability, T/C [9]: 84.9%; viability, T/C [10]: 92.6%; viability, T/C [11]: 76%; viability, T/C [12]: 9.75%; viability, T/C [13]: 74.6%; viability, T/C [14]: 82.1%; viability, T/C [15]: 79.7%; viability, T/C [16]: 73.6%; viability, T/C [17]: 54.9%; viability, T/C [18]: 8.5%; viability, T/C [19]: 50.5%; viability, T/C [20]: 59.1%; viability, T/C [21]: 59.5%; viability, T/C [22]: 58%; viability, T/C [23]: 41.6%; viability, T/C [24]: 8.44%
